Holding throughout (experiment): NCI tumour cell line growth inhibition, 48 h
Assay [1] deals with M14.
For assay [2], the system named is HCC 2998.
Assay [3] deals with SK-MEL-5.
In assay [4] the test system is M19-MEL.
Assay [5] concerns SR.
For assay [6], the system named is DLD-1.
Assay [7] deals with RPMI-8226.
Assay [8] deals with CAKI-1.
Assay [9] concerns MOLT-4.
The test system of assay [10] is KM-20L2.
Assay [11] concerns OVCAR-3.
Assay [12] relates to DMS-114.
The test system of assay [13] is SNB-75.
Assay [14] relates to DMS-273.
Assay [15] relates to PC-3.
In assay [16] the test system is BT-549.
For assay [17], the system named is MDA-N.
Assay [18] has as its system MDA-MB-231.
Assay [19] deals with T47D.

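Values below derive from 48-hour exposures of cells grown in 96-well plates, with endpoints linearly interpolated between the two concentrations bracketing the appropriate inhibition level. Abbreviation: GI50, concentration required for 50% inhibition of growth.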 Calls of active or inactive are those of the source. No stated cut-off is given here; in the data, active = GI50 up to about 1.1 µM and inactive = higher.

On to `COC(=O)[C@]1(C)CCC[C@@]2(C)C1CCC1=CC3(C(C)C)CCC12OO3` (stereo partly drawn), for which the GI50 in [1] is 74 µM (inactive); in assay [2] it was 88.5 µM (inactive); in assay [3] it was 31.1 µM (inactive); in assay [4], 32.2 µM (inactive); in [5], 27.9 µM (inactive); in assay [6], 50.1 µM (inactive). Besides, the GI50 in [7] was 43.1 µM (inactive); in assay [8], 80.5 µM (inactive); in [9] it was 20 µM (inactive); in [10], 94 µM (inactive); in assay [11] it was > 100 µM (inactive).

In the case of `CSc1ccc2c(cc1=O)[C@@H](NC(=O)c1cccc([N+](=O)[O-])c1)CCc1cc(O)c(O)c(O)c1-2`, the GI50 is 25.3 µM (inactive) in [1]; 92.7 µM (inactive) in assay [2]; 24.4 µM (inactive) in [12]; 22.1 µM (inactive) in assay [4]; 43.8 µM (inactive) in [6]; 28.1 µM (inactive) in assay [7]. Also, the GI50 in [8] is 67.3 µM (inactive); in [9], 21.6 µM (inactive); in assay [13] it was 25.1 µM (inactive); in [10] it was 23 µM (inactive); in [11], 35.5 µM (inactive); in [14], 32 µM (inactive).

On to `Cc1ccccc1NC(=O)c1nc(S)nc(N)c1-c1ccccc1C`, for which the GI50 in assay [1], in assay [2], in assay [3], in [12], in assay [4] and in [5] was > 100 µM (inactive) in each case. Further, the GI50 in [6] is > 100 µM (inactive); in assay [7], > 100 µM (inactive); in assay [8], > 100 µM (inactive); in assay [9] it was > 100 µM (inactive); in [13], 1.74 µM (inactive); in [10] it was > 100 µM (inactive). Besides, the GI50 in assay [11] and in [14] was > 100 µM (inactive) in each case.

`O=C1CN=C(C[N+](=O)[O-])c2ccccc21`: the GI50 in [1], in assay [3], in assay [12], in assay [5], in assay [6] and in assay [7] was > 100 µM (inactive) throughout. For the same molecule, the GI50 in assay [8], in assay [9], in assay [13], in assay [10], in [11] and in [14] was > 100 µM (inactive) in each case.

On to `Cc1ccc(Oc2ccc(C(=O)c3cccc(C(=O)c4ccc(Oc5ccc(C)cc5)cc4)n3)cc2)cc1`, for which the GI50 in assay [1], in [2], in assay [3], in [12], in [5] and in [6] was > 100 µM (inactive) each time. Moreover, the GI50 in assay [8] is > 100 µM (inactive); in assay [9], > 100 µM (inactive); in assay [13], 42.2 µM (inactive); in [10], > 100 µM (inactive); in assay [11] it was > 100 µM (inactive); in assay [14], > 100 µM (inactive).

For `Oc1cc(-c2ccccn2)nc2cc(F)ccc12`, the GI50 in assay [1] was 81.1 µM (inactive); in assay [2], > 100 µM (inactive); in [3] it was 45.1 µM (inactive); in [4], 56.6 µM (inactive); in [5], 18.9 µM (inactive); in assay [6], 81.8 µM (inactive). For the same molecule, the GI50 is 92.3 µM (inactive) in assay [7]; > 100 µM (inactive) in assay [9]; 26.5 µM (inactive) in [13]; > 100 µM (inactive) in assay [10]; > 100 µM (inactive) in [11].

For `CCN1c2ccccc2-c2c3c1cc(C)cc3c1ccccc1[n+]2CC`, the GI50 in assay [1] is 1.69 µM (inactive); in [2], 0.811 µM (active); in assay [3], 0.52 µM (active); in assay [12], 0.461 µM (active); in assay [4], 0.36 µM (active); in assay [5], 1.55 µM (inactive). Further, the GI50 in [6] is 2.55 µM (inactive); in assay [7], 0.466 µM (active); in assay [8] it was 2.26 µM (inactive); in assay [9], 1.04 µM (active); in assay [13], 0.798 µM (active); in assay [11], 0.476 µM (active). The GI50 in assay [14] was 0.385 µM (active).

Regarding `NC(=S)NNC(=O)CCC(=O)Nc1ccc(Cl)cc1Cl`, the GI50 in [1] is 37.1 µM (inactive); in [2] it was > 100 µM (inactive); in assay [3] it was 62.7 µM (inactive); in assay [12], 41.7 µM (inactive); in assay [4], > 100 µM (inactive); in assay [6], > 100 µM (inactive). Further, the GI50 in [7] was 43.5 µM (inactive); in assay [8] it was > 100 µM (inactive); in assay [9], 55.3 µM (inactive); in assay [13], > 100 µM (inactive); in [10], > 100 µM (inactive); in assay [11], > 100 µM (inactive). In addition, the GI50 in assay [14] was 38.7 µM (inactive).

For the molecule `O=C(O)c1nc(-c2ccc(Cl)c(Cl)c2)nc2ccc(Cl)cc12`, the GI50 is > 100 µM (inactive) in assay [2]; > 100 µM (inactive) in assay [3]; > 100 µM (inactive) in assay [4]; 64.4 µM (inactive) in assay [5]; > 100 µM (inactive) in assay [6]; > 100 µM (inactive) in assay [7]. Besides, the GI50 in assay [8] is 73.1 µM (inactive); in [9] it was 40.8 µM (inactive); in assay [13], 13.6 µM (inactive); in assay [10], > 100 µM (inactive); in assay [11], 51.9 µM (inactive); in [14], 44.7 µM (inactive).

As for `O=C(Cc1nc2ccccc2s1)C(=O)Nc1cccc(C(F)(F)F)c1`, the GI50 in assay [1], in assay [2], in [3], in assay [12], in assay [4] and in [5] was > 100 µM (inactive) in each case. The GI50 in assay [6], in assay [8], in assay [9], in [13], in [10] and in [11] was > 100 µM (inactive) in each case. In addition, the GI50 in assay [14] was > 100 µM (inactive).

For `C/C=C(/C)C(=O)OC1CC(C)[C@H]2CC(=O)C(C)=C2CC1C(C)(C)OC(C)=O` (stereo partly drawn), the GI50 in assay [15] was 31.3 µM (inactive); in [1], 29.2 µM (inactive); in [2], 22.6 µM (inactive); in [16], 31 µM (inactive); in assay [3], 15.9 µM (inactive); in assay [17], 34.2 µM (inactive). Further, the GI50 in assay [5] is 23 µM (inactive); in assay [7] it was 22.9 µM (inactive); in [8], 37.1 µM (inactive); in assay [9], 26.2 µM (inactive); in assay [18], 31.7 µM (inactive); in [13] it was 44.4 µM (inactive). For the same molecule, the GI50 was 15.4 µM (inactive) in assay [19] and 20.3 µM (inactive) in assay [11].

Consider `CO[C@H]1C[C@H](O[C@H]2CC[C@@]3(C)[C@H](CC[C@@H]4[C@@H]3CC[C@]3(C)[C@@H](C5=CC(=O)OC5)CC[C@]43O)C2)O[C@H](C)[C@H]1O`, for which the GI50 in assay [15] is < 0.01 µM (active); in [1] it was 0.0168 µM (active); in [2], 0.015 µM (active); in assay [16] it was < 0.01 µM (active); in assay [3], < 0.01 µM (active); in assay [17], < 0.01 µM (active). Moreover, the GI50 is < 0.01 µM (active) in assay [5]; < 0.01 µM (active) in assay [7]; < 0.01 µM (active) in assay [8]; < 0.01 µM (active) in assay [9]; 0.0498 µM (active) in assay [18]; < 0.0134 µM (active) in [13]. The GI50 in [19] and in [11] was < 0.01 µM (active) each time.

Take `COc1cc2c(c(OC)c1OC)-c1ccc(SC)c(=O)cc1C(CC(=O)Oc1ccccc1F)C2` (stereo not drawn): the GI50 in [1] is 0.0175 µM (active); in assay [2] it was 0.0307 µM (active); in assay [3], 0.0215 µM (active); in assay [12], 0.0152 µM (active); in [4], 0.0218 µM (active); in [5], < 0.0075 µM (active). Moreover, the GI50 in assay [6] was 0.0196 µM (active); in assay [7], < 0.0075 µM (active); in assay [8], 0.0172 µM (active); in assay [9] it was 0.0531 µM (active); in assay [13], > 7.5 µM (inactive); in assay [10], 0.0127 µM (active). Further, the GI50 in [11] is 0.0119 µM (active); in [14] it was 0.00991 µM (active).

Regarding `CCOP(C)(=O)C(Cc1c[nH]c2ccccc12)C(=O)O` (stereo not drawn), the GI50 in [15], in assay [1], in assay [2], in assay [16], in assay [3] and in [17] was > 100 µM (inactive) each time. Moreover, the GI50 in assay [5], in assay [7], in assay [8], in assay [9], in [18] and in assay [13] was > 100 µM (inactive) in each case. Also, the GI50 in [19] and in assay [11] was > 100 µM (inactive) in each case.

For the molecule `C=CC(C)CCC(C/C=C(\C)CCCC(C)C)C(=C)CCCC(C)C` (stereo not drawn), the GI50 in assay [15], in [1], in assay [2], in assay [16], in assay [3] and in [17] was > 100 µM (inactive) each time. Besides, the GI50 in assay [5], in assay [7], in [8], in [9], in assay [18] and in assay [13] was > 100 µM (inactive) each time. For the same molecule, the GI50 in assay [19] and in assay [11] was > 100 µM (inactive) each time.

(Values after ChEMBL document CHEMBL1201862, “PubChem BioAssay data set” (2004).)
